According to patent publication US12193465B2, “Materials and methods for extending shelf-life of foods” (JP Laboratories, Inc., priority 2021, dated 2025):
“Also recorded” adds a separate entry of the source.

How the values were obtained:
fungus = test: Fungus growth on treated foods stored in closed containers at room temperature; conditions: for Spoilage Time - Sample: Fungus
Description: Most of the foods changed color or texture.
Glass jars and bottles were also used. The containers were snap-closed or with a lid.
These bags were sealed with a heat sealer.
The assembly was shaken periodically.

yeast = test: Rising of dough; conditions: Example 74; Freshly prepared dough for bread; 1% in 100 g flour
Description: On a control sample of freshly prepared dough, rising could continuously be observed throughout the day.

C=CCN=C=S [AI, allyl isothiocyanate]
Fungus growth (fungus; Example 12, Paneer (Indian cottage cheese), sachet): > 10 days | Spoilage Time - Sample (fungus; Example 20, Apple juice, 0.02 g, control 7 days): 13 days | Spoilage Time - Sample (fungus; Example 21, Beet juice, 0.02 g, control 7 days): 13 days | Spoilage Time - Sample (fungus; Example 22, Blueberries, 16 hrs P-E, control 3 days): 24 days | Spoilage Time - Sample (fungus; Example 25, Broccoli, 0.25 hr P-E, control 6 days): 9 days | Spoilage Time - Sample (fungus; Example 26, Broccoli, Sachet, control 6 days): 9 days | Spoilage Time - Sample (fungus; Example 27, Broccoli, 2 hrs P-E, control 5 days): 16 days | Spoilage Time - Sample (fungus; Example 28, Carrot juice, 0.02 g, control 12 days): 13 days | Spoilage Time - Sample (fungus; Example 30, Chickpeas, Sachet, control 7 days): 9+ days | Spoilage Time - Sample (fungus; Example 33, Fresh, raw, shelled undried peanuts, Sachet, control 18 days): 46 days | Spoilage Time - Sample (fungus; Example 33, Fresh, raw, shelled undried peanuts, Sachet, control 18 days, listed as allyl isothiocyanate): significantly delayed or prevented | Spoilage Time - Sample (fungus; Example 35, 5.3% Gelatin, 175 bloom in water, Sachet, control 9 days): 47 days | Spoilage Time - Sample (fungus; Example 37, 4% Guar Gum in water, Sachet, control 5 days): 47 days | Spoilage Time - Sample (fungus; Example 39, Guar beans, 2 hrs P-E, control 6 days): 17 days | Spoilage Time - Sample (fungus; Example 40, Honeydew juice, 0.02 g, control 12 days): 30 days | Spoilage Time - Sample (fungus; Example 42, Lychee, 0.5 hr P-E, control 7 days): 11 days | Spoilage Time - Sample (fungus; Example 44, Mixed Legumes, 64 hrs P-E, 6 hrs soaking, control 11 days): 17 days | Spoilage Time - Sample (fungus; Example 45, Monterey cheese, Sachet, control 7 days): 10+ days | Spoilage Time - Sample (fungus; Example 45, Monterey cheese, Sachet, control 7 days, listed as allyl isothiocyanate): > 10 days | Spoilage Time - Sample (fungus; Example 47, Pomegranate juice, 0.02 g, control 7 days): 13 days | Spoilage Time - Sample (fungus; Example 48, Puri (Indian fried bread), 16 hrs P-E, control 5 days): 70+ days | Spoilage Time - Sample (fungus; Example 49, Raspberry, 1 hr P-E, control 5 days): 9 days | Spoilage Time - Sample (fungus; Example 50, Raspberry, 0.33 hr P-E, control 5 days): 31 days | Spoilage Time - Sample (fungus; Example 51, Raw milk cheddar cheese, 1 hr P-E & Sachet, control 6 days): 35 days | Spoilage Time - Sample (fungus; Example 53, Rotala (Indian millet bread), 16 hrs P-E, control 5 days): 70+ days | Spoilage Time - Sample (fungus; Example 56, 26.7% Starch solution in water, 0.25 ml of 0.42% solution, control 5 days): 47 days | Spoilage Time - Sample (fungus; Example 57, 26.7% Starch solution in water, Sachet, control 5 days): 47 days | Spoilage Time - Sample (fungus; Example 58, Strawberries, 5 hrs P-E, control 2 days): 15 days | Spoilage Time - Sample (fungus; Example 59, Tindora, 2 hrs P-E, control 6 days): 40 days | Spoilage Time - Sample (fungus; Example 60, Tofu, Sachet, control 6 days): 9+ days | Spoilage Time - Sample (fungus; Example 60, Tofu, Sachet, control 6 days, listed as allyl isothiocyanate): > 9 days | Spoilage Time - Sample (fungus; Example 62, Unshelled peanuts, 5 ml of 0.42% solution, control 5 days): 8 days | Spoilage Time - Sample (fungus; Example 62, Unshelled peanuts, 5 ml of 0.42% solution, control 5 days, listed as allyl isothiocyanate): either prevented or significantly delayed | Spoilage Time - Sample (fungus; Example 63, Wild Rice, 5 ml of 10% allyl isothiocyanate solution in water, control 11 days): 21 days | Spoilage Time - Sample (fungus; Example 64, Wild Rice, Sachet, control 11 days): 21 days | Spoilage Time - Sample (fungus; Example 89, Mixed Legumes, AI & Humidity, 64 hrs P-E AI, 6 hrs soaking in water, control 11 days): 17 days | Fungus growth (fungus; Indian millet bread, Indian wheat bread (roti), cheesecake, sachet or pre-exposure to vapors): either prevented or significantly delayed | Effectiveness in preventing fungus (fungus; compared with ethyl isothiocyanate): more effective | Fungus growth (fungus; fresh cold pressed carrot, red cabbage and beet juice, Examples 28, 21, 13): either prevented or significantly delayed | Fungus growth (fungus; fresh cold pressed pomegranate, blackberry, orange, red grape, apple, blueberry and honeydew juice): either prevented or significantly delayed | Shelf-life of vegetable juices (fungus; fresh, cold pressed tomatillo, lime and green cabbage juices): improved shelf-life | Effectiveness on ginger (fungus; ginger, pre-exposure and sachet method): found effective | Fungus growth (fungus; guar gum and starch, Examples 37, 56 & 57): either prevented or significantly delayed | Shelf-life of raw milk yogurt (fungus; raw milk yogurt): extended shelf-life | Fungus growth (fungus; strawberries, raspberries, blackberries and lychee): either prevented or significantly delayed | Rise of dough (yeast): did not rise; also recorded: allyl isothiocyanate is capable of killing yeast
